Several values for one entry are separate records, joined by “and”; a condition that tells them apart may be missing. Equal entries are not always repeated.
Test system: 429239-143-T-J1-PDC complex spheroid viability
Assay: Anticancer human tumor 429239-143-T-J1-PDC patient-derived small cell lung carcinoma cell line growth inhibition [POLQ]
Conditions: for viability, T/C: stronger effect = lower value
Procedure: Multicellular complex tumor spheroid response to Polymerase (POL) inhibitors (novobiocin, ART-558, RP6685) in combination with a variety of drugs and investigational agents in selected tumor cell lines
The POL inhibitors (novobiocin, ART-558, and RP6685) were evaluated both individually and in combination with standard of care and investigational anticancer small molecules within a complex spheroid model of solid tumors. . Complex spheroids include a stromal component modeled by human endothelial cells (HUVEC) and fibroblasts modeled by human mesenchymal stem cells (MSCs). The concentration ranges selected for each drug and investigational agent were based upon clinically achievable concentrations if the clinical Cmax of the agent was known.
Compounds. The drugs and investigational agents: novobiocin (NSC847541), ART-558 (NSC835418), RP-6685 (NSC848927), peposertib (NSC802822), ceralasertib (NSC780249), elimusertib (NSC800525), camonsertib (NSC841442), AZD-1390 (NSC803789), olaparib (NSC753686), talazoparib (NSC767125), rucaparib (NSC756644), sotorasib (NSC818433), MRTX-1133 (NSC836407), SN-38 (NSC673596), topotecan (NSC609699), epotoside (NSC141540), doxorubicin (NSC123127), gemcitabine (NSC613327), 5-fluorouracil (NSC19893), paclitaxel (NSC125973), vemurafenib (NSC761431), MSA-2 (NSC828583), SN-011 (NSC837082), adavosertib (NSC754352), prexasertib (NSC758257), carboplatin (NSC241240) and oxaliplatin (NSC266046), were obtained from the National Cancer Institute (NCI) Developmental Therapeutics Program Chemical Repository (21). The FDA-approved anticancer drug set is available from the Developmental Therapeutics Program at https://dtp.cancer.gov/organization/dscb/obtaining/. […] The stock solutions were prepared in dimethyl sulfoxide (DMSO, Sigma-Aldrich, St. Louis, MO, cat. D2650), except for the platinum compounds which were prepared in saline (Quality Biological, Gaithersburg, MD, cat. 114-055-101), at 800-fold the tested concentration and stored at -70 degrees C prior to their use. All drugs and investigational agents were tested over a range starting from a high concentration at or near the clinical Cmax and decreasing in half-log increments. If the clinical Cmax for an agent had not been determined, the highest concentration tested was 10 microM, except for SN-38, which was tested at a high concentration of 1 microM.
Cell Culture. All cells were maintained in an incubator at 37 degrees C and 5% CO2 with 95% humidity. The PDC lines were cultured according to standard operating procedures established by the NCI PDMR (https://pdmr.cancer.gov). Table 3 of the manuscript, lists the cell lines along with the number of the three cell types plated to form the mct-spheroids and media for tumor cell growth. After thawing, all PDC lines, except 997537-175-T-J1-PDC and 415267-285-R-J2-PDC, were cultured in Matrigel-coated flasks prepared with a working solution of 1X Ham's F-12 nutrient mix, without supplementation (Thermo Fisher Scientific, cat. 11765054), 100 U/mL penicillin-streptomycin (Thermo Fisher Scientific, cat. 15140122), and 2.5% Matrigel (Corning Inc., Corning, NY, cat. 354248) for the first three passages. The two PDC lines 997537-175-T-J1-PDC and 415267-285-R-J2-PDC were cultured on uncoated flasks. The 857933-349-R-J2-PDC line was cultured in 6C/Colon 1B media containing advanced DMEM/F-12 (Thermo Fisher Scientific, cat. 12634028), 10 mM HEPES (Thermo Fisher Scientific, cat. 15630080), 1X GlutaMAX supplement (Thermo Fisher Scientific, cat. 35050061), 0.1 mg/mL primocin (InvivoGen, San Diego, CA, cat. ant-pm-2), 10% defined fetal bovine serum, heat inactivated (HyClone Laboratories Inc., Logan, UT, cat. SH30070.03HI), 50% L-WRN conditioned media (ATCC, cat. CRL-3276), 1.25 mM N-Acetyl-L-cysteine (Sigma-Aldrich, cat. A9165), 10 mM nicotinamide (Sigma-Aldrich, cat. N0636), 1X B-27 supplement (Thermo Fisher Scientific, cat. 17504044), 1X N-2 supplement (Thermo Fisher Scientific, cat. […]

[1] = curve of first compound, second compound 0.0316 µM
[2] = curve of first compound, second compound 0.1 µM
[3] = curve of first compound, second compound 0.316 µM
[4] = curve of first compound, second compound 1 µM
[5] = curve of first compound, second compound 3.16 µM
[6] = curve of first compound, second compound 10 µM
[7] = second compound 0.0316 µM, first compound 0.0316 µM
[8] = second compound 0.0316 µM, first compound 0.1 µM
[9] = second compound 0.0316 µM, first compound 0.316 µM
[10] = second compound 0.0316 µM, first compound 1 µM
[11] = second compound 0.0316 µM, first compound 3.16 µM
[12] = second compound 0.0316 µM, first compound 10 µM
[13] = second compound 0.1 µM, first compound 0.0316 µM
[14] = second compound 0.1 µM, first compound 0.1 µM
[15] = second compound 0.1 µM, first compound 0.316 µM
[16] = second compound 0.1 µM, first compound 1 µM
[17] = second compound 0.1 µM, first compound 3.16 µM
[18] = second compound 0.1 µM, first compound 10 µM
[19] = second compound 0.316 µM, first compound 0.0316 µM
[20] = second compound 0.316 µM, first compound 0.1 µM
[21] = second compound 0.316 µM, first compound 0.316 µM
[22] = second compound 0.316 µM, first compound 1 µM
[23] = second compound 0.316 µM, first compound 3.16 µM
[24] = second compound 0.316 µM, first compound 10 µM
[25] = second compound 1 µM, first compound 0.0316 µM
[26] = second compound 1 µM, first compound 0.1 µM
[27] = second compound 1 µM, first compound 0.316 µM
[28] = second compound 1 µM, first compound 1 µM
[29] = second compound 1 µM, first compound 3.16 µM
[30] = second compound 1 µM, first compound 10 µM
[31] = second compound 3.16 µM, first compound 0.0316 µM
[32] = second compound 3.16 µM, first compound 0.1 µM
[33] = second compound 3.16 µM, first compound 0.316 µM
[34] = second compound 3.16 µM, first compound 1 µM
[35] = second compound 3.16 µM, first compound 3.16 µM
[36] = second compound 3.16 µM, first compound 10 µM
[37] = second compound 10 µM, first compound 0.0316 µM
[38] = second compound 10 µM, first compound 0.1 µM
[39] = second compound 10 µM, first compound 0.316 µM
[40] = second compound 10 µM, first compound 1 µM
[41] = second compound 10 µM, first compound 3.16 µM
[42] = second compound 10 µM, first compound 10 µM
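Note: luminescence signal used as surrogate measure of viable cells; spheroids exposed to compounds for seven days before readout.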
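Throughout, for viability, T/C: 100% = DMSO vehicle control viability as luminescence relative to vehicle.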

## CC1COCCN1c1cc(C2(S(C)(=N)=O)CC2)nc(-c2ccnc3[nH]ccc23)n1 (stereo unspecified) + Nc1ccc(C#CCN(C(=O)Cc2ncc(C(F)(F)F)cc2C(F)(F)F)c2ccc(F)cc2)nn1
[1]
  IC50: > 10 µM
[2]
  IC50: 9.98 µM
[3]
  IC50: 9.92 µM
[4]
  IC50: > 10 µM
[5]
  IC50: 8.71 µM
[6]
  IC50: 7.19 µM
[7]
  viability, T/C: 90.4%
[8]
  viability, T/C: 105%
[9]
  viability, T/C: 100%
[10]
  viability, T/C: 91%
[11]
  viability, T/C: 80.4%
[12]
  viability, T/C: 53.3%
[13]
  viability, T/C: 109%
[14]
  viability, T/C: 104%
[15]
  viability, T/C: 94.6%
[16]
  viability, T/C: 95.2%
[17]
  viability, T/C: 84.8%
[18]
  viability, T/C: 49%
[19]
  viability, T/C: 99.9%
[20]
  viability, T/C: 97.7%
[21]
  viability, T/C: 97.2%
[22]
  viability, T/C: 92.5%
[23]
  viability, T/C: 77.2%
[24]
  viability, T/C: 49.6%
[25]
  viability, T/C: 113%
[26]
  viability, T/C: 91.2%
[27]
  viability, T/C: 90.2%
[28]
  viability, T/C: 90.2%
[29]
  viability, T/C: 79.2%
[30]
  viability, T/C: 51.6%
[31]
  viability, T/C: 99.1%
[32]
  viability, T/C: 86.8%
[33]
  viability, T/C: 90.7%
[34]
  viability, T/C: 95.2%
[35]
  viability, T/C: 79.6%
[36]
  viability, T/C: 46%
[37]
  viability, T/C: 95.5%
[38]
  viability, T/C: 91.4%
[39]
  viability, T/C: 101%
[40]
  viability, T/C: 83.9%
[41]
  viability, T/C: 79.7%
[42]
  viability, T/C: 38.5%

## O=C(Nc1ccc(O)c(NS(=O)(=O)c2ccc(F)cc2)c1)c1ccc(-c2ccccc2)cc1
Compound 0.0316 µM
  viability, T/C: 100% and 92.5% and 95.2%
Compound 0.1 µM
  viability, T/C: 106% and 123% and 96.5%
Compound 0.316 µM
  viability, T/C: 105% and 106% and 107%
Compound 1 µM
  viability, T/C: 103% and 107% and 99.5%
Compound 3.16 µM
  viability, T/C: 113% and 122% and 114%
Compound 10 µM
  viability, T/C: 103% and 119% and 63.5%
Curve of compound
  IC50: > 10 µM

## O=C(c1cc(Cc2n[nH]c(=O)c3ccccc23)ccc1F)N1CCN(C(=O)C2CC2)CC1 + Nc1ccc(C#CCN(C(=O)Cc2ncc(C(F)(F)F)cc2C(F)(F)F)c2ccc(F)cc2)nn1
[1]
  IC50: 4.18 µM
[2]
  IC50: 3.96 µM
[3]
  IC50: 4.09 µM
[4]
  IC50: 4.13 µM
[5]
  IC50: 4.25 µM
[6]
  IC50: 3.6 µM
[7]
  viability, T/C: 101%
[8]
  viability, T/C: 98.4%
[9]
  viability, T/C: 92.4%
[10]
  viability, T/C: 84.9%
[11]
  viability, T/C: 64.8%
[12]
  viability, T/C: 7.77%
[13]
  viability, T/C: 96.6%
[14]
  viability, T/C: 104%
[15]
  viability, T/C: 90%
[16]
  viability, T/C: 95.9%
[17]
  viability, T/C: 60.8%
[18]
  viability, T/C: 6.66%
[19]
  viability, T/C: 104%
[20]
  viability, T/C: 99.1%
[21]
  viability, T/C: 91.3%
[22]
  viability, T/C: 81.2%
[23]
  viability, T/C: 65.8%
[24]
  viability, T/C: 9.12%
[25]
  viability, T/C: 105%
[26]
  viability, T/C: 94.4%
[27]
  viability, T/C: 88.5%
[28]
  viability, T/C: 84.9%
[29]
  viability, T/C: 64.8%
[30]
  viability, T/C: 8.72%
[31]
  viability, T/C: 97.6%
[32]
  viability, T/C: 93.4%
[33]
  viability, T/C: 90.8%
[34]
  viability, T/C: 95.2%
[35]
  viability, T/C: 64.3%
[36]
  viability, T/C: 8.47%
[37]
  viability, T/C: 102%
[38]
  viability, T/C: 92%
[39]
  viability, T/C: 93.5%
[40]
  viability, T/C: 88.9%
[41]
  viability, T/C: 55.4%
[42]
  viability, T/C: 6.04%
